Earlier results as cited in patent publication US11547674B2, “Protein-polymer hybrid biomaterials” (The Regents of the University of California, priority 2018, dated 2023).

Target: Bacillus stearothermophillus LDH (Geobacillus stearothermophilus, UniProt P00344)
Details: read-out: Km of oxamate for LDH

Sequence of Bacillus stearothermophillus LDH (P00344 whole entry): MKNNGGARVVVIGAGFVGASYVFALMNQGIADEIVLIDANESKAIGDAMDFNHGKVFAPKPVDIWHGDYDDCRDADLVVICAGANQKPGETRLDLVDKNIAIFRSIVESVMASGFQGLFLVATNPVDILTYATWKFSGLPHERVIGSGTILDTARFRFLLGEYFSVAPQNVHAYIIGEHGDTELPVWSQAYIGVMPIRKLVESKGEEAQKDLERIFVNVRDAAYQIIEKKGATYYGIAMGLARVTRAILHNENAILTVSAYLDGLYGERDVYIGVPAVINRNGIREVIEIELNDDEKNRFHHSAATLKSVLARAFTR

NC(=O)C(=O)O [oxamate]
Km: 600 µM
